# From US20140350029A1 (DAINIPPON SUMITOMO PHARMA CO., LTD., priority 2011, published 2014)
# Entries after “also recorded” stand apart in the source; their conditions may differ.
# What was measured:
# Dopamine D4 receptor = molecular target: T1, Dopamine D4 receptor (Homo sapiens, UniProt P21917); test: In vitro receptor binding, dopamine D4; conditions: cloned cells expressing human receptors; read-out: Binding Affinities (Ki; nM) Dopamine D4
# T1 sequence (P21917 1-419): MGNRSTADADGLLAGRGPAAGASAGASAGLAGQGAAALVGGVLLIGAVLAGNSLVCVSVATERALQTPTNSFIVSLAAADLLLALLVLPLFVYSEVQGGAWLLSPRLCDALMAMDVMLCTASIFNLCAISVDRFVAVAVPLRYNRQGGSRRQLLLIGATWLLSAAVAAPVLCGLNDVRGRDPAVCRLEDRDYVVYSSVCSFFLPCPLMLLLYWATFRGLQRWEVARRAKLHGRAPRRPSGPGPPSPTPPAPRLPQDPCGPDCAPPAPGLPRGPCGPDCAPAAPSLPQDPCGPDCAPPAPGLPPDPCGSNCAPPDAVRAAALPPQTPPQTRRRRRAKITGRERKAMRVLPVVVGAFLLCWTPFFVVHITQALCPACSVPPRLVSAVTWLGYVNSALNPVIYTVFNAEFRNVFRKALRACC
# Procedure: Functional assays were carried out to analyze the binding affinity and effect on receptor function for dopamine D1-D4 receptor subtypes, serotonin 5-HT1A, 5-HT2A, 5-HT2C, 5-HT6, 5-HT7, norepinephrine α1, α2A, α2C, histamine H1 receptors, and muscarinic M1 receptors.
# [1] = system: patients with schizophrenia; test: Quality of Well-Being (QWB-SA), 6-week placebo-controlled study; type: in vivo, human; conditions: 80 mg and 160 mg lurasidone per day, 6 weeks
# Procedure: Quality of Well-Being (QWB) was measured according to the procedures well-established in the art. The QWB was a self administered questionnaire (QWB-SA), where the combined score ranged from 0 to 1.0 (death to optimal functioning). A patient diagnosed with schizophrenia answered five sections assessing the presence/absence of 19 chronic symptoms or problems, physical symptoms, and mental health symptoms and behaviors as well as an assessment of a person's mobility, physical activity and social activity including completion of role expectations. […] In addition, the relationship between other indicators of therapy outcome, for example, cognitive composite scores, PANSS scores, Negative Symptom Assessment Scale scores (NSA), and Montgomery-Asberg Depression Rating Scale scores (MADRS), was evaluated in relation to quality of life, as assessed by the QWB-SA. […] In addition, partial correlations were found between improvement of QWB-SA and PANSS scores, QWB-SA and MADE scores, QWB-SA and NSA scores, and QWB-SA and cognitive composite scores.
# [2] = Metabolic effects, 1-year lurasidone therapy; type: in vivo, human; conditions: 40-120 mg/day, 1-year study, patients with schizophrenia
# Procedure: Changes in weight, total cholesterol, triglycerides, fasting glucose, and prolactin were measured and compared to baseline levels.
# [3] = Lurasidone adjunctive to lithium or divalproex for bipolar I depression, 6-week study, safety and tolerability; type: in vivo, human; conditions: adjunctive to Li/VPA
# Procedure: Therapeutic blood levels of Li or VPA had to be maintained for ≧28 days prior to randomization.
# The total duration of treatment was 6 weeks.
# Patients were required to continue treatment with lithium or divalproex during the screening period and throughout the study. Dose adjustments of lithium or divalproex were permitted during the trial to ensure that trough serum levels remained within the protocol-specified range (0.6 mEq/L to 1.2 mEq/L for lithium or […] to 125 μg/mL for divalproex).
# This study also evaluated the safety and tolerability of using lurasidone in combination with lithium or divalproex. Patients were evaluated for: (1) Adverse effects, discontinuation due to adverse effects (AEs), and serious adverse effects (SAEs), (2) Movement disorders as assessed by Abnormal Involuntary Movement Scale (AIMS), Barnes Akathisia Rating Scale (BARS), and the Simpson-Angus Scale (SAS), and (3) Weight, laboratory measures, vital signs, and electrocardiograms (ECGs).
# [4] = molecular target: T2, serotonin 5-HT1A receptor (Homo sapiens, UniProt P08908); conditions: background statement; cited from earlier work
# T2 sequence (P08908 1-422): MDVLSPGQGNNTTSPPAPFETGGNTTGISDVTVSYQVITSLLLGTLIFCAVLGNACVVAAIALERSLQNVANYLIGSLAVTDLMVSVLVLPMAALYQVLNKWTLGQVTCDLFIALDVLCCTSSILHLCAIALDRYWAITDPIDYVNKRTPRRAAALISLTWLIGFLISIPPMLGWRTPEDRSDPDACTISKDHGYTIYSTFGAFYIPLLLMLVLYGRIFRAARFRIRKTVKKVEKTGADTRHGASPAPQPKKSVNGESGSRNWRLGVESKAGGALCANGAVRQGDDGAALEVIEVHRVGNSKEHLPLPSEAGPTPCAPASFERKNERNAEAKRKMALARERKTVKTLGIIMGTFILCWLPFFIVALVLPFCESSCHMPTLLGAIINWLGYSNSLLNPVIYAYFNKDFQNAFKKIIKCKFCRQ
# 5-HT7 receptor = 5-HT7 receptor (Homo sapiens, UniProt P34969); conditions: background statement; cited from earlier work
# [5] = molecular target: T3, noradrenaline α2C receptor (Homo sapiens, UniProt P18825); conditions: background statement; cited from earlier work
# T3 sequence (P18825 1-462): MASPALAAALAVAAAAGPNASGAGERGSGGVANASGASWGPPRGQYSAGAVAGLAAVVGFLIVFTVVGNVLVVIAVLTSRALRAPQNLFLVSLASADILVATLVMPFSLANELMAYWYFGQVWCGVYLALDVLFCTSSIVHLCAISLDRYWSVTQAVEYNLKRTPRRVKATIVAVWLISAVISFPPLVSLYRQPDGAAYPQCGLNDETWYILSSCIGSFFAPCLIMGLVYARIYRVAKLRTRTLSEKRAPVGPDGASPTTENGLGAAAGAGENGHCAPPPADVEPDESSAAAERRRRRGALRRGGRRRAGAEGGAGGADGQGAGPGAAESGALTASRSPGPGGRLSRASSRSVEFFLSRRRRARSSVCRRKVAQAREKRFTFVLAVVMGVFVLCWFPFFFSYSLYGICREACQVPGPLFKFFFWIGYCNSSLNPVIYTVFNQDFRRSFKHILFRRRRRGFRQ
# muscarinic M1 receptor = molecular target: T4, muscarinic M1 receptor (Homo sapiens, UniProt P11229); conditions: background statement; cited from earlier work
# T4 sequence (P11229 1-460): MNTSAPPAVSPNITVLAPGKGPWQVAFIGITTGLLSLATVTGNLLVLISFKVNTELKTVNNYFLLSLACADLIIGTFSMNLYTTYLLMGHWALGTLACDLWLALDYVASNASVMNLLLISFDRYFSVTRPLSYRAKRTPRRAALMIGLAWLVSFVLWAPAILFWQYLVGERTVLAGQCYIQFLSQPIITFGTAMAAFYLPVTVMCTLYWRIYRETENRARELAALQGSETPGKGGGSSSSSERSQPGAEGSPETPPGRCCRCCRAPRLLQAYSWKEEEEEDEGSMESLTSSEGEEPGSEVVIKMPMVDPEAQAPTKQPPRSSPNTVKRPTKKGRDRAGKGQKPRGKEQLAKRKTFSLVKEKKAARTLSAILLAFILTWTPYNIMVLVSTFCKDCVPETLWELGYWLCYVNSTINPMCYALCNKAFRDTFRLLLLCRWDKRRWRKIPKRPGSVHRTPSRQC
# 5-HT7 receptor, sequence (P34969 whole entry): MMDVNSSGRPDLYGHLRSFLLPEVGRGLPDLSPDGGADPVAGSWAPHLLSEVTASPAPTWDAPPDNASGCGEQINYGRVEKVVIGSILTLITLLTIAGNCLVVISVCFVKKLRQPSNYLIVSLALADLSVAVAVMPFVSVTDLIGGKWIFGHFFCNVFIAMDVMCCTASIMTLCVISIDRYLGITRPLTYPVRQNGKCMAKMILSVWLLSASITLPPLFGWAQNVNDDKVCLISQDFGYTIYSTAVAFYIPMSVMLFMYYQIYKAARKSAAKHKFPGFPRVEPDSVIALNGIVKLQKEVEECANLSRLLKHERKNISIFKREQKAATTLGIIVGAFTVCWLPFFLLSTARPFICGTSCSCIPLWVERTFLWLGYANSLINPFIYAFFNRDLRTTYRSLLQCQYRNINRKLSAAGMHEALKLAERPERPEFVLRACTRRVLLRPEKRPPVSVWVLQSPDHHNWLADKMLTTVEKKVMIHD
structure (smiles),measurement,setting,value
O=C1[C@@H]2[C@H]3CC[C@H](C3)[C@@H]2C(=O)N1C[C@@H]1CCCC[C@H]1CN1CCN(c2nsc3ccccc23)CC1 [Lurasidone],Ki,Dopamine D4 receptor,29.7 nM
same,QWB-SA score compared to placebo (endpoint ANCOVA),[1],significant improvement
same,"changes in mean weight, lipids, and prolactin from baseline",[2],no adverse changes
same,"changes in weight, lipids, and measures of glucemic control",[3],Minimal changes
same,discontinuation rates due to adverse events,[3],6%
same,most frequently reported adverse events,[3],"nausea, headache, somnolence, and tremor"
same,reported affinity for 5-HT1A receptor,[4],high affinity; also recorded: moderate affinity
same,reported affinity for 5-HT7 receptor,5-HT7 receptor,high affinity
same,reported affinity for noradrenaline α2C receptor,[5],high affinity
same,reported affinity for muscarinic M1 receptor,muscarinic M1 receptor,minimal to no affinity
